From patent US20240246932A1 (Merck Sharp & Dohme LLC, priority 2021, published 2024) come the findings set out here.

The test concerns the target human NaV 1.8 channels stably expressed in HEK 293 cells (Homo sapiens (Human), UniProt Q9Y5Y9). The experiment in a line: Nav1.8 Qube automated patch-clamp assay. To be noted: human NaV1.8 in HEK 293 cells, whole-cell voltage clamp, room temperature; read-out: IC50 values (nM) for Examples in the Nav1.8 Qube Assay. Type of test: cell-based. The method in brief:
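Whole-cell voltage clamp at room temperature on HEK293 cells; from −90 mV, a 10 s 1 Hz train of 20 ms pulses to 10 mV (repolarising to −67 mV) was applied. Peak currents at pulses 1 and 10 gave resting- and inactivated-state inhibition; IC50 fitted by Hill equation. Internal CsF/CsCl buffer.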

Chain of human NaV 1.8 channels stably expressed in HEK 293 cells (Q9Y5Y9 whole entry): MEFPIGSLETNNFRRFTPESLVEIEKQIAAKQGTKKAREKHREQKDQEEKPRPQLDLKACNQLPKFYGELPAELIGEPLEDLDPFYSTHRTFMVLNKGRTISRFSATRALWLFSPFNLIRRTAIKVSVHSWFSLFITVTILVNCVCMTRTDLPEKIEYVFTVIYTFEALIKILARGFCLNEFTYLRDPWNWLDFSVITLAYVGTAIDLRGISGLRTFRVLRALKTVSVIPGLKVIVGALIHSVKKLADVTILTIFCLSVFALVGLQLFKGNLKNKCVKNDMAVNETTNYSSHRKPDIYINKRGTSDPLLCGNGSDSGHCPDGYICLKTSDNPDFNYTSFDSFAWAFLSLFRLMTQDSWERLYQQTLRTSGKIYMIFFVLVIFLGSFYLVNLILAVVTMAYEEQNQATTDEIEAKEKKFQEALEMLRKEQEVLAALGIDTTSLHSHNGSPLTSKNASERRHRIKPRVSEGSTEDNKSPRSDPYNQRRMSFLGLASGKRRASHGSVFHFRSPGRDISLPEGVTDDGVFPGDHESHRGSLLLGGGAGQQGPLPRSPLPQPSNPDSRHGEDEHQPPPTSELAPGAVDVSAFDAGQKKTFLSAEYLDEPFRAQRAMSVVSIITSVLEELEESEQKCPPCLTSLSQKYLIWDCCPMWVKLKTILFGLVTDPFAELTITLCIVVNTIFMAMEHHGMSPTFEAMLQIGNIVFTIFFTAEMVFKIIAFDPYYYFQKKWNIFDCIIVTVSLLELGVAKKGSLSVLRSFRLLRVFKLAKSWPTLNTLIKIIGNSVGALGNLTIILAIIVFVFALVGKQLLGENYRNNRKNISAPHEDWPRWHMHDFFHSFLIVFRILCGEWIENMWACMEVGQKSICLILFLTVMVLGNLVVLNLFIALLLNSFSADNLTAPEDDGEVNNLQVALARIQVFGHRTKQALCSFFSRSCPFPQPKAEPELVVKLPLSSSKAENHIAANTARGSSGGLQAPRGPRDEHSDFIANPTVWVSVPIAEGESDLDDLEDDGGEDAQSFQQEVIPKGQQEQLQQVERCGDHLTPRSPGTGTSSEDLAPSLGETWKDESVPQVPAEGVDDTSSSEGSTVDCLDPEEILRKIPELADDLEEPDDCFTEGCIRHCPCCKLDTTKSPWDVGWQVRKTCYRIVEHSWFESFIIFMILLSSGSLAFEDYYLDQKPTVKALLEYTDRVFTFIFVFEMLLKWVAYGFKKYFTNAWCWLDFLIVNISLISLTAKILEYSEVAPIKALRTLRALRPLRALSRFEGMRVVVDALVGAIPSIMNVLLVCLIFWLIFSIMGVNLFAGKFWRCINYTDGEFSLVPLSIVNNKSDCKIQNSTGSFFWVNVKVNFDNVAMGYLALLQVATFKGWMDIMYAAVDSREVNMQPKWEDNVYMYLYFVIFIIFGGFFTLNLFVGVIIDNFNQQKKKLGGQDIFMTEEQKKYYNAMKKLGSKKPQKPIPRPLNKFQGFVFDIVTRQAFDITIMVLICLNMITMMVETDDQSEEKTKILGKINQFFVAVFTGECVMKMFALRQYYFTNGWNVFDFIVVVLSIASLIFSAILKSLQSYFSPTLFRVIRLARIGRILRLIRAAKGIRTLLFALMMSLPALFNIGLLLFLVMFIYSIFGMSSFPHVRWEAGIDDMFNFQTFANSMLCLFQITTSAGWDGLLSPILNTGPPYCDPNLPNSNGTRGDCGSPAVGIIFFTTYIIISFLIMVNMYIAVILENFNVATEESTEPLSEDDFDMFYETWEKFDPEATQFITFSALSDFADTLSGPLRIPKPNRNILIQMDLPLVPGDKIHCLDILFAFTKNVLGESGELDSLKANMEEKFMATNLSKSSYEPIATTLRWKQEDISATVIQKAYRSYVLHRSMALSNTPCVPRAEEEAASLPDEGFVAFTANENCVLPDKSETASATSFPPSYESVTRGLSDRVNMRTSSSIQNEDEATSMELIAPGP

In general, IC50 refers to the midpoint of a concentration-inhibition curve. Turning to `C[C@@H]1C(=O)NCCN1C(=O)NC(c1ccc(OC(F)(F)F)c(Cl)c1)c1coc(C(F)(F)F)n1` (single isomer, unassigned) [Example 64A, (2R)-N-((R or S)-(3-chloro-4-(trifluoro-methoxy)phenyl)(2-(trifluoromethyl)oxazol-4-yl)methyl)-2-methyl-3-oxopiperazine-1-carboxamide], the 50% inhibitory concentration (IC50) was determined as 4.96 nM. With `C[C@@H]1C(=O)NCCN1C(=O)NC(c1ccc(OCC(F)(F)F)nc1)c1ccc(F)c(C(F)(F)F)n1` (single isomer, unassigned) [Example 50A, (2R)-N-((R or S)-(5-fluoro-6-(trifluoro-methyl)pyridin-2-yl)(6-(2,2,2-trifluoro-ethoxy)pyridin-3-yl)methyl)-2-methyl-3-oxopiperazine-1-carboxamide], the 50% inhibitory concentration (IC50) stood at 73.7 nM.
